US20240101531A1, “PYRIDINAMINE DERIVATIVES AND THEIR USE AS POTASSIUM CHANNEL MODULATORS” (Xenon Pharmaceuticals Inc., priority 2022, published 2024)
Counter-ions that a name gives are not always drawn.

target: human KV7.2/KV7.3 (Homo sapiens (Human), UniProt O43525+O43526); assay: Potassium flux assay (IPG-2 AM dye); assay type: cell-based; settings: TREX HEK 293 or HEK 293 cells expressing human KV7.2/KV7.3; arithmetic mean values
How it was run: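 HEK 293 or TREX HEK 293 cells stably expressing human KV7.2/KV7.3 (tetracycline-induced where needed), loaded with IPG-2 AM, then compound for 20 min at room temperature. Flux triggered by K challenge buffer (10 mM KCl, pH 7.4), read at 530/558 nm; EC50 from 16-point 2-fold series from 30 μM, normalised to DMSO and reference modulator.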

| Compound | EC50 [µM] |
| --- | --- |
| N#CC(F)(COc1ccc2c(Nc3cnc(Cl)nc3)nccc2c1)C1CC1 (centres unmarked) [Example 146, 3-((1-((2-chloropyrimidin-5-yl)amino)isoquinolin-6-yl)oxy)-2-cyclopropyl-2-fluoropropanenitrile] | < 1 |
| N#CCC1(COc2ccc3c(Nc4cnc(Cl)nc4)nccc3c2)CC1 [Example 147, 2-(1-(((1-((2-chloropyrimidin-5-yl)amino)isoquinolin-6-yl)oxy)methyl)cyclopropyl)acetonitrile] | < 1 |
| C[C@]1(O)CCC[C@@H](Oc2ccc3c(Nc4ccc(Cl)nc4)nccc3c2)C1 [Example 148, (1S,3R)-3-((1-((6-chloropyridin-3-yl)amino)isoquinolin-6-yl)oxy)-1-methylcyclohexan-1-ol] | < 1 |
| C[C@@]1(O)CCC[C@H](Oc2ccc3c(Nc4ccc(Cl)nc4)nccc3c2)C1 [Example 149, (1R,3S)-3-((1-((6-chloropyridin-3-yl)amino)isoquinolin-6-yl)oxy)-1-methylcyclohexan-1-ol] | < 1 |
| Cn1ccc(COc2ccc3c(Nc4ccc(Cl)nc4)nccc3c2)n1 [Example 150, N-(6-chloropyridin-3-yl)-6-((1-methyl-1H-pyrazol-3-yl)methoxy)isoquinolin-1-amine] | < 1 |
| C#CC1(COc2ccc3c(Nc4ccc(Cl)nc4)nccc3c2)CC1 [Example 151, N-(6-chloropyridin-3-yl)-6-((1-ethynylcyclopropyl)methoxy)isoquinolin-1-amine] | < 1 |
| CC(C)C1(COc2ccc3c(Nc4ccc(Cl)nc4)nccc3c2)COC1 [Example 152, N-(6-chloropyridin-3-yl)-6-((3-isopropyloxetan-3-yl)methoxy)isoquinolin-1-amine] | < 1 |
| OC1CC2(C1)CC(Oc1ccc3c(Nc4ccc(Cl)nc4)nccc3c1)C2 (centres unmarked) [Example 153, 6-((1-((6-chloropyridin-3-yl)amino)isoquinolin-6-yl)oxy)spiro[3.3]heptan-2-ol] | < 1 |
| Clc1ccc(Nc2nccc3cc(OCC4COCCO4)ccc23)cn1 (centres unmarked) [Example 154, 6-((1,4-dioxan-2-yl)methoxy)-N-(6-chloropyridin-3-yl)isoquinolin-1-amine] | < 1 |
| OCC(F)(F)COc1ccc2c(Nc3ccc(Cl)nc3)nccc2c1 [Example 155, 3-((1-((6-chloropyridin-3-yl)amino)isoquinolin-6-yl)oxy)-2,2-difluoropropan-1-ol] | 1 to 10 |
| Cc1oncc1COc1ccc2c(Nc3ccc(Cl)nc3)nccc2c1 [Example 156, N-(6-chloropyridin-3-yl)-6-((5-methylisoxazol-4-yl)methoxy)isoquinolin-1-amine] | < 1 |
| Clc1ccc(Nc2nccc3cc(OCc4ccno4)ccc23)cn1 [Example 157, N-(6-chloropyridin-3-yl)-6-(isoxazol-5-ylmethoxy)isoquinolin-1-amine] | < 1 |
| Clc1ccc(Nc2nccc3cc(OCc4cnc(Cc5cccnc5)o4)ccc23)cn1 [Example 158, N-(6-chloropyridin-3-yl)-6-((2-(pyridin-3-ylmethyl)oxazol-5-yl)methoxy)isoquinolin-1-amine] | 1 to 10 |
| C[C@@H](COc1ccc2c(Nc3ccc(Cl)nc3)nccc2c1)c1cnn(C)c1 [Example 159, (R)—N-(6-chloropyridin-3-yl)-6-(2-(1-methyl-1H-pyrazol-4-yl)propoxy)isoquinolin-1-amine] | 1 to 10 |
| C[C@H](COc1ccc2c(Nc3ccc(Cl)nc3)nccc2c1)c1cnn(C)c1 [Example 160, (S)—N-(6-chloropyridin-3-yl)-6-(2-(1-methyl-1H-pyrazol-4-yl)propoxy)isoquinolin-1-amine] | 1 to 10 |
| CC#CC(C)(C)COc1ccc2c(Nc3ccc(Cl)nc3)nccc2c1 [Example 161, N-(6-chloropyridin-3-yl)-6-((2,2-dimethylpent-3-yn-1-yl)oxy)isoquinolin-1-amine] | 1 to 10 |
| CNc1cc(Nc2nccc3cc(OCC4(C)COC4)ccc23)cnc1Cl [Example 162, 2-chloro-N^3-methyl-N^5-(6-((3-methyloxetan-3-yl)methoxy)isoquinolin-1-yl)pyridine-3,5-diamine] | < 1 |
| CC1(COc2ccc3c(Nc4cnc(Cl)c(N)c4)nccc3c2)COC1 [Example 163, 2-chloro-N^5-(6-((3-methyloxetan-3-yl)methoxy)isoquinolin-1-yl)pyridine-3,5-diamine] | < 1 |
| Cc1nn(C)cc1COc1ccc2c(Nc3ccc(Cl)nc3)nccc2c1 [Example 165, N-(6-chloropyridin-3-yl)-6-((1,3-dimethyl-1H-pyrazol-4-yl)methoxy)isoquinolin-1-amine] | < 1 |
| COc1nn(C)cc1COc1ccc2c(Nc3ccc(Cl)nc3)nccc2c1 [Example 166, N-(6-chloropyridin-3-yl)-6-((3-methoxy-1-methyl-1H-pyrazol-4-yl)methoxy)isoquinolin-1-amine] | < 1 |
| Cc1ncsc1C(=O)N[C@H]1CC[C@@H](Oc2ccc3c(Nc4ccc(Cl)nc4)nccc3c2)CC1 [Example 167, N-((1s,4s)-4-((1-((6-chloropyridin-3-yl)amino)isoquinolin-6-yl)oxy)cyclohexyl)-4-methylthiazole-5-carboxamide] | 1 to 10 |

| Compound | EC50 [µM] |
| --- | --- |
| Clc1ccc(Nc2nccc3cc(OCCCCCn4cncn4)ccc23)cn1 [Example 168, 6-((5-(1H-1,2,4-triazol-1-yl)pentyl)oxy)-N-(6-chloropyridin-3-yl)isoquinolin-1-amine] | 1 to 10 |
| Cc1ncc(Nc2nccc3cc(OC(C)c4cnn(C)c4)ccc23)cn1 (centres unmarked) [Example 169, 6-(1-(1-methyl-1H-pyrazol-4-yl)ethoxy)-N-(2-methylpyrimidin-5-yl)isoquinolin-1-amine] | 1 to 10 |
| C[C@@H](Oc1ccc2c(Nc3ccc(Cl)nc3)nccc2c1)c1cnn(C)c1 [Example 171, (R)—N-(6-chloropyridin-3-yl)-6-(1-(1-methyl-1H-pyrazol-4-yl)ethoxy)isoquinolin-1-amine] | < 1 |
| C[C@H](Oc1ccc2c(Nc3ccc(Cl)nc3)nccc2c1)c1cnn(C)c1 [Example 172, (S)—N-(6-chloropyridin-3-yl)-6-(1-(1-methyl-1H-pyrazol-4-yl)ethoxy)isoquinolin-1-amine] | < 1 |
| Cc1nn(C)cc1[C@@H](C)Oc1ccc2c(Nc3ccc(Cl)nc3)nccc2c1 [Example 174, (R)—N-(6-chloropyridin-3-yl)-6-(1-(1,3-dimethyl-1H-pyrazol-4-yl)ethoxy)isoquinolin-1-amine] | 1 to 10 |
| Cc1nn(C)cc1[C@H](C)Oc1ccc2c(Nc3ccc(Cl)nc3)nccc2c1 [Example 175, (S)—N-(6-chloropyridin-3-yl)-6-(1-(1,3-dimethyl-1H-pyrazol-4-yl)ethoxy)isoquinolin-1-amine] | 1 to 10 |
| CC(C)C(C)(N)COc1ccc2c(Nc3ccc(Cl)nc3)nccc2c1 (centres unmarked) [Example 176, 6-(2-amino-2,3-dimethylbutoxy)-N-(6-chloropyridin-3-yl)isoquinolin-1-amine hydrochloride] | 10 to 30 |
| COC1(COc2ccc3c(Nc4ccc(Cl)nc4)nccc3c2)CC1 [Example 177, N-(6-chloropyridin-3-yl)-6-((1-methoxycyclopropyl)methoxy)isoquinolin-1-amine] | < 1 |
| COC1(COc2ccc3c(Nc4cnc(C)nc4)nccc3c2)CC1 [Example 178, 6-((1-methoxycyclopropyl)methoxy)-N-(2-methylpyrimidin-5-yl)isoquinolin-1-amine] | 1 to 10 |
| CC1(COc2ccc3c(Nc4ccc(Cl)nc4)nccc3c2)CC1 [Example 179, N-(6-chloropyridin-3-yl)-6-((1-methylcyclopropyl)methoxy)isoquinolin-1-amine] | 1 to 10 |
| Clc1ccc(Nc2nccc3cc(OCCC4CC4)ccc23)cn1 [Example 180, N-(6-chloropyridin-3-yl)-6-(2-cyclopropylethoxy)isoquinolin-1-amine] | 10 to 30 |
| FC1(COc2ccc3c(Nc4ccc(Cl)nc4)nccc3c2)CC1 [Example 181, N-(6-chloropyridin-3-yl)-6-((1-fluorocyclopropyl)methoxy)isoquinolin-1-amine] | < 1 |
| Clc1ccc(Nc2nccc3cc(OCc4cncnc4)ccc23)cn1 [Example 182, N-(6-chloropyridin-3-yl)-6-(pyrimidin-5-ylmethoxy)isoquinolin-1-amine] | < 1 |
| Clc1ccc(Nc2nccc3cc(OCCc4ccccn4)ccc23)cn1 [Example 183, N-(6-chloropyridin-3-yl)-6-(2-(pyridin-2-yl)ethoxy)isoquinolin-1-amine] | 1 to 10 |
| FC(F)(F)OCCOc1ccc2c(Nc3ccc(Cl)nc3)nccc2c1 [Example 184, N-(6-chloropyridin-3-yl)-6-(2-(trifluoromethoxy)ethoxy)isoquinolin-1-amine] | 1 to 10 |
| Clc1ccc(Nc2nccc3cc(OCCCn4ccnc4)ccc23)cn1 [Example 185, 6-(3-(1H-imidazol-1-yl)propoxy)-N-(6-chloropyridin-3-yl)isoquinolin-1-amine] | 1 to 10 |
| COc1ncc(COc2ccc3c(Nc4ccc(Cl)nc4)nccc3c2)cn1 [Example 186, N-(6-chloropyridin-3-yl)-6-((2-methoxypyrimidin-5-yl)methoxy)isoquinolin-1-amine] | 1 to 10 |
| COc1cc(Nc2nccc3cc(OCC4(C)COC4)ccc23)cnc1C [Example 187, N-(5-methoxy-6-methylpyridin-3-yl)-6-((3-methyloxetan-3-yl)methoxy)isoquinolin-1-amine formate] | < 1 |
| CCn1ccc(COc2ccc3c(Nc4ccc(Cl)nc4)nccc3c2)n1 [Example 188, N-(6-chloropyridin-3-yl)-6-((1-ethyl-1H-pyrazol-3-yl)methoxy)isoquinolin-1-amine formate] | 1 to 10 |
| Cc1ncc(Nc2nccc3cc(OCC4(F)CC4)ccc23)cn1 [Example 189, 6-((1-fluorocyclopropyl)methoxy)-N-(2-methylpyrimidin-5-yl)isoquinolin-1-amine] | < 1 |
